Experimental data: patent publication US3978071A, “Substituted phenylalkanoic acids and derivatives” (Yoshitomi Pharmaceutical Industries, Ltd., priority 1973, dated 1976)

Assays:
[1] = system: ultraviolet erythema; test: Anti-inflammatory Action, Ultraviolet Erythema Method; assay type: in vivo; conditions: Cavia porcellus, light or radiation study, po, guinea pigs, equal amounts 1 hour before and after irradiation; total dose required for 50% efficacy rate
From the text: ii. Ultraviolet Erythema Method:
Using guinea pigs weighing 250-450 g, a rubber plate with 3 holes of 7 mm in diameter was fitted to the abdomen, hair of which had been removed in advance, and light was given by a mercury lamp (300 W) at the distance of 15 cm for 150 seconds. Two hours later the degree of erythema formation was marked according to the method of Winder et al. (Arch. Intern. Pharmacodyn., 116, 261 (1958); 1 for distinct erythema, 0.5 for indistinct erythema and 0 for no erythema) and the efficacy rate was calculated, based on the criterion that 1.5 or less of total marks be effective. Equal amounts of the test solution were orally given 1 hour before and after the irradiation, respectively. The ED50, the total dose required for 50% efficacy rate, was calculated from the dose-response curve.

[2] = system: o-phenyl-p-benzoquinone induced stretch symptoms; test: Analgesic Action (Phenylquinone Method); assay type: in vivo, dd-strain male mice; conditions: Mus musculus, po, mice, 1 hour before 0.02% o-phenyl-p-benzoquinone i.p., dose required for 50% inhibition of stretch symptoms (30 minutes)
Method: According to the method of Hendershot et al. (J. Pharmacol. Exptl. Therap., 125, 237 (1959)), to one group of 6 dd-strain male mice each weighing about 20 g a test solution containing a test compound was orally administered and 1 hour later 0.2 ml/20 g of body weight of 0.02% o-phenyl-p-benzoquinone solution was intraperitoneally injected. The frequency of stretch symptoms thus induced was measured for 30 minutes, and compared with that of a control group, and the inhibition percentage (effect) was calculated. The ED50 the dose required for 50% inhibition, was calculated from the dose-response curve.

[3] = system: carrageenin edema of the hind paw; test: Anti-inflammatory Action, Carrageenin Edema Method; assay type: in vivo, Donryu-strain male rats; conditions: Rattus norvegicus, po, rats, 1 hour before 1% carrageenin s.c.; paw bulk 2 hours after phlogogen; dose required for 50% inhibition
Method: i. Carrageenin Edema Method
According to the method of Winter et al. (Proc. Soc. Exptl. Biol. Med., 111, 544 (1962)), to one group of 5 Donryu-strain male rats each weighing about 130 g a test solution containing a test compound was administered orally. One hour later 0.05 ml of 1% carrageenin solution as phlogogenic substance was subcutaneously injected to the paw of the hind leg. And 2 hours after the administration of phlogogen the bulk of the paw was measured in order to obtain the increment percentage over that before administration. The ratio of bulk increment between a control group and a test group was calculated as inhibition percentage. The ED50, the dose required for 50% inhibition, was calculated from the dose-response curve.

Row | SMILES | ED50 [1] | ED50 [2] | ED50 [3]
1 | CC(C(=O)O)c1ccc(-c2cn3ccccc3n2)cc1 (stereo not drawn) [A, 2-[4-(imidazo[1,2-a]pyridin-2-yl)phenyl]propionic acid] | 6 mg/kg | 0.1 mg/kg | 8 mg/kg
2 | CC(C(=O)O)c1ccc(-c2cn3ccccc3n2)c(Cl)c1 (stereo not drawn) [B, 2-[3-chloro-4-(imidazo[1,2-a]pyridin-2-yl)phenyl]propionic acid] | 1 mg/kg | 0.2 mg/kg | 25 mg/kg
3 | CC(C(=O)O)c1ccc(-c2cn3ccccc3n2)c(F)c1 (stereo not drawn) [C, 2-[3-fluoro-4-(imidazo[1,2-a]pyridin-2-yl)phenyl]propionic acid] | 2.5 mg/kg | 0.1 mg/kg | 25 mg/kg
4 | CC(C(=O)O)c1ccc(-c2cn3ccsc3n2)cc1 (stereo not drawn) [D, 2-[4-(imidazo[2,1-b]thiazol-6-yl)phenyl]propionic acid] | 2.5 mg/kg | 13 mg/kg | 50 mg/kg
5 | CC(C(=O)O)c1ccc(-c2cn3ccsc3n2)c(Cl)c1 (stereo not drawn) [E, 2-[3-chloro-4-(imidazo[2,1-b]thiazol-6-yl)phenyl]propionic acid] | 5 mg/kg | 0.5 to 1 mg/kg | 100 mg/kg
